Here are results for one cell line from the supplement of paper PMC10307832.

Assay in all cases: relative viability (nuclei count vs DMSO), 5 days (fraction); higher = more cells survive
Compound in one test: C1CSC2=C(C(=O)N1)SC3=C2C=C(C=C3)O [kb NB 142-70]
A digest of the protocol: (§1)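 Lung cancer cell lines were seeded into 1536-well plates, kept overnight at 37 °C and pinned with five library-drug doses (not always all listed) spaced by √10. After 5 days, nuclei were Hoechst-stained, imaged at 4× and counted with MetaXpress. Viability is treated-well nuclei over vehicle-well nuclei, taken as a median across plates. Plates needed control CV below 25% and at least one doubling.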

Compound in test [1]: NCC(=O)Nc1ccc(-n2nc(C(F)(F)F)cc2-c2ccc3c(ccc4ccccc43)c2)cc1
A digest of the protocol:
as §1

Compound in test [2]: C1CSC2=C(C(=O)N1)SC3=C2C=C(C=C3)O [kb NB 142-70] + CC(=O)c1c(C)c2cnc(Nc3ccc(N4CCNCC4)cn3)nc2n(C2CCCC2)c1=O [Palbociclib] (partner 0.5 µM)
A digest of the protocol:
(§2)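 One day after seeding in 1536-well plates, lung cancer cell lines were dosed by pin tool. Dosing was either single-drug or a fixed anchor-drug dose plus five library-drug doses (not always all listed) in √10 steps. After 5 days, nuclei were stained in one fix-and-stain step and counted on 4× images, and relative viability is the nuclei count of treated wells over that of vehicle wells, given as the median of duplicate plates.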

Compound in test [3]: NCC(=O)Nc1ccc(-n2nc(C(F)(F)F)cc2-c2ccc3c(ccc4ccccc43)c2)cc1 + COc1cccc2cc(-c3nc([C@H]4CC[C@H](C(=O)O)CC4)n4ncnc(N)c34)[nH]c12 [OSI-027] (partner 0.5 µM)
The essentials: as §2

Compound in test [4]: C1CSC2=C(C(=O)N1)SC3=C2C=C(C=C3)O [kb NB 142-70] + Cc1cc(Nc2cc(N3CCN(C)CC3)nc(Sc3ccc(NC(=O)C4CC4)cc3)n2)n[nH]1 [Tozasertib] (partner 0.1 µM)
A digest of the protocol:
as §2

Turning to UMC-11, the relative viability in the test with kb NB 142-70 (0.1 µM) stood at 1.03; with kb NB 142-70 (1 µM), 0.973; with kb NB 142-70 (3.162 µM), 0.572; in test [1] (0.02 µM) it was 0.93; in test [1] (0.06325 µM) it was 1; in test [1] (0.2 µM), 1.05. Besides, the relative viability in test [1] (0.6325 µM) was found to be 1.01; in test [1] (2 µM), 0.931; in test [2] (first compound 0.1 µM), 0.322; in test [2] (first compound 1 µM), 0.344; in test [2] (first compound 3.162 µM), 0.324; in test [3] (first compound 0.02 µM) it was 0.402. Further, the relative viability in test [3] (first compound 0.06325 µM) was 0.475; in test [3] (first compound 0.2 µM) it was 0.485; in test [3] (first compound 0.6325 µM), 0.443; in test [3] (first compound 2 µM), 0.453; in test [4] (first compound 0.1 µM), 0.217; in test [4] (first compound 1 µM) it was 0.179. Also, the relative viability in test [4] (first compound 3.162 µM) was found to be 0.18.
